Laboratory results taken from patent US20210023012A1, “Solid Pharmaceutical Compositions for Treating HCV” (AbbVie Inc., priority 2019, published 2021).
Marks after values point to notes of the source that are not given here.

How the values were obtained:
Blood-to-plasma ratio = format: in vitro ADME; conditions: human, whole blood/plasma
[1] = Steady-state pharmacokinetics of film-coated granules in pediatric subjects by age group; format: in vivo, human; parameters: Ctrough: unit not given here; conditions: for Ctrough / AUC: Week 2; for AUC: human, oral, film-coated granules
Method: The study was designed to assess the steady state AUC and to assess the pharmacokinetics (PK) of Compound 1/Compound 2 in pediatric subjects by age group. […] Subjects were enrolled in this study and dosed with film-coated granules containing Compound 1/Compound 2 as generally described above in Example 3. [table] An intensive PK sample draw was done at the Week 2 visit with blood samples taken immediately prior to dose (0 hour) and at 2, 4, 6, and 12 hours post dose.

[2] = Predicted PK exposures (Pop-PK AUC) in pediatric subjects; format: in vivo; parameters: concentration or dose not given beside the values; conditions: human, oral
Description: The predicted PK exposures (“Pop-PK AUC”) of Compound 1/Compound 2 based on all PK information collected in the study (including data from other study weeks) is shown in Table 13 and Table 13a.

clinical = conditions: human, in vivo
Description: Target AUC was derived from the geometric mean of AUC values from a population of adult subjects who received Compound 1 and Compound 2.

[3] = Phase 1 single-dose crossover: bioavailability and food effect of Compound 1/Compound 2 bilayer tablets; format: in vivo, human; conditions: film-coated vs uncoated bilayer tablets, additional studies
[4] = Pharmacokinetic properties in healthy subjects; format: in vivo, human; conditions: for Tmax: oral, median, single doses
[5] = Single-dose crossover: bioavailability of Compound 1/Compound 2 mini-tablets; format: in vivo, human; conditions: for Cmax / AUC(0-inf) / AUC(0-t) / half-life / Tmax: human, in vivo, oral, N = 14; for Cmax / AUC(0-inf) / AUC(0-t): geometric mean; for half-life: harmonic mean; for Tmax: median
Method: In comparison, when administered with food, the mini-tablets provided an AUC that was only 5% lower than that provided by the regular tablets. […] All of the reference AUCs of the regular tablets were measured under fasting conditions.
14 subjects were enrolled in this study and dosed with co-formulated Compound 1/Compound 2 in mini-tablets. One subject spilled 4 mini-tablets (out of 100-150 total mini-tablets) during dosing of Period 2 (Regimen G) and was not excluded from the analysis. The mini-tablets were prepared according to a process similar to that described in Example 2.

[6] = Binding to human plasma proteins; format: in vitro ADME; conditions: read-out: % Bound to human plasma proteins (converted)
[7] = Phase 1 single-dose crossover: bioavailability and food effect of Compound 1/Compound 2 bilayer tablets; format: in vivo, human; conditions: for Cmax / AUC(0-inf) / AUC(0-t) / half-life / Tmax: human, in vivo, oral, N = 23; for Cmax / AUC(0-inf) / AUC(0-t): geometric mean; for half-life: harmonic mean; for Tmax: median
Method: Phase 1, single-dose, four-period, randomized, complete crossover clinical trials were conducted to determine the bioavailability and food effect of the Compound 1/Compound 2 film-coated bilayer tablets. Tablets described in Table 1b were used in Regimens A, B and C, and separate tablets containing either Compound 1 or Compound 2 were used in Regimen D. Subjects took a single dose of Compound 1/Compound 2 on Day 1 of each Period. There was a washout of 4 days between doses. • i. Regimens A and D: study drugs were taken under fasting conditions. • ii. Regimen B: study drugs were taken approximately 30 minutes after start of moderate-fat breakfast (about 30% calories from fat). • iii. Regimen C: study drugs were taken approx. 30 minutes after start of high-fat breakfast (50% calories from fat). For Regimens A, B and C, the single dose consisted of three tablets of Table 1b, each tablet contains 100 mg/40 mg Compound 1/Compound 2. For Regimen D, the single dose contained three tablets of Compound 1, each of which contained 100 mg Compound 1, as well as three tablets of Compound 2, each of which contained 40 mg Compound 2. [table] [table]

[8] = Mass balance studies with [14C] compound, single dose; format: in vivo, human; conditions: single dose of [14C] compound
[9] = mean systemic exposure with moderate to high fat meals
[10] = Regimen F: single dose mini-tablets 200 mg/120 mg, fasting
[11] = Regimen G: single dose mini-tablets 200 mg/120 mg, non-fasting
[12] = Regimen J: two Compound 1 tablets (100 mg each) and three Compound 2 tablets (40 mg each), fasting
[13] = Regimen A: single dose bilayer tablets 300 mg/120 mg, fasting
[14] = Regimen B: single dose bilayer tablets 300 mg/120 mg with moderate fat breakfast
[15] = Regimen C: single dose bilayer tablets 300 mg/120 mg with high fat breakfast
[16] = Regimen D: single dose separate Compound 1 tablets (3 × 100 mg) and Compound 2 tablets (3 × 40 mg), fasting

With `CC(C)(C)[C@@H]1NC(=O)O[C@@H]2CCC[C@H]2OC/C=C/C(F)(F)c2nc3ccccc3nc2O[C@@H]2C[C@@H](C(=O)N[C@]3(C(=O)NS(=O)(=O)C4(C)CC4)C[C@H]3C(F)F)N(C2)C1=O` [Compound 1] the blood plasma ratio (Blood-to-plasma ratio) was 0.57, the Ctrough ([1]; 3 to <6 years old, post-adjustment 150 mg/60 mg, N 10) was 9.8 and the Ctrough ([1]; 6 to <9 years old, post-adjustment 200 mg/80 mg, N 9) was 8.2. The Ctrough ([1]; 9 to <12 years old, post-adjustment 250 mg/100 mg, N 10) was 17.0, the AUC ([1]; blood, 3 to <6 years old, post-adjustment, 3 sachets, 150 mg/60 mg, N 10, read-out: AUC) was 6700 ng·h/mL and the AUC ([1]; blood, 6 to <9 years old, post-adjustment, 4 sachets, 200 mg/80 mg, N 9, read-out: AUC) was 5970 ng·h/mL. The AUC ([1]; blood, 9 to <12 years old, post-adjustment, 5 sachets, 250 mg/100 mg Compound 1/Compound 2, N 10, read-out: AUC) was 8670 ng·h/mL, the AUC ([1]; in vivo, 3 to <6 years old, pre-adjustment, 3 sachets, 120 mg/45 mg, read-out: AUC, Geometric Mean) was 3030 ng·h/mL and the AUC ([1]; in vivo, 6 to <9 years old, pre-adjustment, 4 sachets, 160 mg/60 mg, read-out: AUC, Geometric Mean) was 1680 ng·h/mL. For the same compound, the AUC ([1]; in vivo, 9 to <12 years old, pre-adjustment, 5 sachets, 200 mg/75 mg Compound 1/Compound 2, read-out: AUC, Geometric Mean) was 4070 ng·h/mL, the “Exposures in children aged 3 to <12 years vs adolescents 12 to <18 years and adults from Phase 2/3 studies” value ([1]; recommended doses according to body weight) was “comparable” and the AUC ([2]; blood, Table 13, 3 to <6 years old, N 10, predicted) was 6310 ng·h/mL. The AUC ([2]; blood, Table 13, 6 to <9 years old, N 9, predicted) was 5770 ng·h/mL, the AUC ([2]; blood, Table 13, 9 to <12 years old, N 10, predicted from all PK information collected in the study) was 5180 ng·h/mL and the AUC ([2]; in vivo, Table 13a, 3 to <6 years old, N 10, predicted) was 8990 ng·h/mL. For the same compound, the AUC ([2]; in vivo, Table 13a, 6 to <9 years old, N 9, predicted) was 5160 ng·h/mL, the AUC ([2]; in vivo, Table 13a, 9 to <12 years old, N 10, predicted) was 8120 ng·h/mL and the AUC (clinical) was 4800 ng·h/mL. For the same compound, the “Impact of film-coating on bioavailability” value [3] was “minimal impact”, the Metabolism ([4]; Biotransformation) was “Secondary” and the “Major route of elimination” value ([4]; human, in vivo) was “Biliary”. For the same compound, the Tmax ([4]; human, in vivo, healthy subjects, read-out: Tmax of granules) was 3 to 4 h, the Tmax ([4]; human, in vivo, healthy subjects, read-out: Tmax of tablets) was 5 h and the half-life ([4]; human, in vivo, healthy subjects, read-out: t1/2 at steady-state) was 6 to 9 h. For the same compound, the “Effect of meal (relative to fasting) on adult tablets, ↑” value [4, 9] was “↑ 83-163%”, the “Effect of meal (relative to fasting) on granules, ↑” value [4, 9] was “↑ 131-168%” and the “Effect of administration with food on bioavailability” value ([5]; co-formulated mini-tablets) was “significantly increased”. For the same compound, the Cmax ([5]; Regimen F: single dose mini-tablets 200 mg/120 mg Compound 1/Compound 2, fasting) was 123 ng/mL, the AUC(0-inf) [5, 10] was 432 ng·h/mL and the AUC(0-t) [5, 10] was 428 ng·h/mL. It also gave a half-life [5, 10] of 5.61 h, a Tmax [5, 10] of 1 h and a Cmax ([5]; Regimen G: single dose mini-tablets 200 mg/120 mg Compound 1/Compound 2, non-fasting) of 166 ng/mL. For the same compound, the AUC(0-inf) [5, 11] was 704 ng·h/mL, the AUC(0-t) [5, 11] was 699 ng·h/mL and the half-life [5, 11] was 6.42 h. The Tmax [5, 11] was 1.75 h, the Cmax ([5]; Regimen J: single dose two Compound 1 tablets (100 mg each) and three Compound 2 tablets (40 mg each), fasting) was 212 ng/mL and the AUC(0-inf) [5, 12] was 742 ng·h/mL. The AUC(0-t) [5, 12] was 738 ng·h/mL, the half-life [5, 12] was 5.93 h and the Tmax [5, 12] was 1.5 h. For the same compound, the “AUC of mini-tablets lower than that of regular tablets (fasting)” value ([5]; mini-tablets with food, 200 mg Compound 1) was 5%, the “AUC of mini-tablets lower than that of regular tablets (fasting)” value ([5]; mini-tablets without food, 200 mg Compound 1 / 120 mg Compound 2, same solid dispersion formulation) was 41% and the fraction unbound [6] was 0.025. The “Effect of administration with food on bioavailability” value ([7]; bilayer tablets) was “significantly improved”, the Cmax ([7]; Regimen A: single dose bilayer tablets 300 mg/120 mg (3 × 100 mg/40 mg), fasting) was 294 ng/mL and the AUC(0-inf) [7, 13] was 1150 ng·h/mL. For the same compound, the AUC(0-t) [7, 13] was 1150 ng·h/mL, the half-life [7, 13] was 6 h and the Tmax [7, 13] was 3 h. For the same compound, the AUC(0-inf) [7, 14] was 3040 ng·h/mL, the AUC(0-t) [7, 14] was 3040 ng·h/mL and the Cmax [7, 14] was 937 ng/mL. It also gave a half-life [7, 14] of 6 h, a Tmax [7, 14] of 4 h and an AUC(0-inf) [7, 15] of 2120 ng·h/mL. For the same compound, the AUC(0-t) [7, 15] was 2110 ng·h/mL, the Cmax [7, 15] was 633 ng/mL and the half-life [7, 15] was 6.3 h. It also gave a Tmax [7, 15] of 5 h, an AUC(0-inf) [7, 16] of 2620 ng·h/mL and an AUC(0-t) [7, 16] of 2620 ng·h/mL. For the same compound, the Cmax [7, 16] was 803 ng/mL, the half-life [7, 16] was 5.7 h and the Tmax [7, 16] was 2 h. For the same compound, the “% of dose excreted in faeces” value [8] was 92.1^d % and the “% of dose excreted in urine” value [8] was 0.7%.
